Measurements taken from patent US9597302B1, “Combination of dofetilide and mexiletine for the prevention and treatment of atrial fibrillation” (Heart Rhythm Solutions, Inc., priority 2015, dated 2017).
“Also recorded” adds a separate entry of the source.

Experiments:
[1] = tested on: arterially-perfused rabbit atrial wedge preparations; test: Induction of atrial fibrillation by programming stimulation in arterially-perfused rabbit atrial wedge preparations; details: for suppression of induction of atrial fibrillation: programming stimulation, concentrations of Table 1
Method: (§1) Rabbits (New Zealand White) of either sex, weighing 2.0-2.8 kg were injected with heparin (800 U/kg) via an ear vein and anesthetized by intramuscular injection of xylazine (5 mg/kg) and intravenous administration of ketamine HCl (30-35 mg/kg, i.v.). The chest was opened via a left thoracotomy, and the heart was excised and placed in a cardioplegic solution consisting of cold (4° C.) normal Tyrode's solution.
(§2) Surgical preparation of the rabbit right or left atrial wedge was essentially similar to that in Preclinical assessment of drug-induced proarrhythmias: role of the arterially perfused rabbit left ventricular wedge preparation,^18 herein incorporated by reference. Briefly, the atrial preparation was dissected from the rabbit heart and cannulated via a coronary artery branch, either from the right coronary artery (the right atrial wedge) or the left coronary artery (the left atrial wedge), and perfused with a cardioplegic solution. Similarly, the left ventricular wedge preparation was dissected from the rabbit heart and arterially cannulated via a branch of left coronary artery. The atrial or ventricular wedge preparation was then placed in a small tissue bath and arterially perfused with Tyrode's solution containing 4.0 mM K^+ buffered with 95% O2 and 5% CO2 at a temperature of 35.7±0.1° C. The preparations were paced at basic cycle lengths (BCL) of 300, 500, 1000 and 2000 ms.
Atrial fibrillation was induced by programming stimulation using single or double extrastimuli (S2 and S3). Basic cycle lengths (S1 and S1) of 1000 and 500 ms were used for induction of atrial fibrillation.

[2] = literature refs 19-21; cited from earlier work
[3] = tested on: arterially perfused rabbit atrial wedge preparations; test: Atrial effective refractory period (ERP) and loss of excitation in arterially perfused rabbit atrial wedge preparations; details: for atrial preparations that lost excitation, drug alone: dofetilide (10 nM) or mexiletine (30 μM) used alone; for effect on atrial ERP, drug alone: each drug alone (FIG. 2)
Method: as §1, §2
Atrial effective refractory period (ERP) was measured by introducing an extrastimulus (S2) repeatedly every 10 pulses (S1) at two folds of the pacing threshold. […] In the preparations that lost excitation intermittently after drug interventions, the ERP was then considered to be equal to the S1-S1 interval.

[4] = tested on: arterially-perfused rabbit left ventricular wedge preparations; test: Dofetilide-induced EAD, R-on-T extrasystoles and TdP in arterially-perfused rabbit left ventricular wedge preparations
Method: as §1, §2
Two extracellular silver/silver chloride electrodes were placed on the endocardial or epicardial surfaces to record bipolar atrial electrograms (EGM). A transmural ECG was recorded in the ventricular wedge preparation using two extracellular silver/silver chloride electrodes placed in the bath 0.5 to 1.5 cm from the epicardial and endocardial surfaces of the preparation (Epi: “+” pole). Transmembrane action potential was recorded from the endocardium or epicardium using the floating glass microelectrodes. Atrial action potential duration at 90% repolarization (APD90) was used for data analysis.
Early afterdepolarization (EAD), EAD-dependent R-on-T extrasystoles and torsade de pointes (TdP) were induced by dofetilide in the rabbit left ventricular wedges which were paced at a BCL of 2000 ms and perfused with Tyrode's solution containing 3 mM K^+, which is equivalent to hypokalemia in humans. Lower K^+ potentiated the effect of dofetilide to induced EAD, R-on-T and TdP. The K^+ concentration in Tyrode's solution remained the same when the effect of mexiletine on dofetilide-induced EAD, R-on-T and TdP was examined.

[5] = tested on: arterially perfused rabbit atrial wedge preparations; test: Atrial action potential duration (APD90) in arterially perfused rabbit atrial wedge preparations; details: dofetilide 3 nM and 10 nM; BCL 1000 ms or 500 ms (FIG. 1)
Method: as §1
Surgical preparation of the rabbit right or left atrial wedge was essentially similar to that in Preclinical assessment of drug-induced proarrhythmias: role of the arterially perfused rabbit left ventricular wedge preparation,^18 herein incorporated by reference. […]
Two extracellular silver/silver chloride electrodes were placed on the endocardial or epicardial surfaces to record bipolar atrial electrograms (EGM). A transmural ECG was recorded in the ventricular wedge preparation using two extracellular silver/silver chloride electrodes placed in the bath 0.5 to 1.5 cm from the epicardial and endocardial surfaces of the preparation (Epi: “+” pole). Transmembrane action potential was recorded from the endocardium or epicardium using the floating glass microelectrodes. […]

[6] = dofetilide 10 nM, BCL 2000 ms, 3 mM K+

In the case of Cc1cccc(C)c1OCC(C)N (racemic) [mexiletine, (RS)-1-(2,6-dimethylphenoxy)propan-2-amine], the “Induced Atrial Fibrillation (incidence)” value ([1]; mexiletine 10 μM) is given as 4 of 4 preparations, the “suppression of induction of atrial fibrillation” value [1] is given as “not” and the “therapeutical plasma concentration in humans” value [2] is given as about 10 µM. For the same compound, the “atrial preparations that lost excitation, drug alone” value [3] was “none”, the “effect on atrial ERP, drug alone” value [3] was “mildly to moderately prolonged” and the “reversibility of the effect on dofetilide-induced EAD, R-on-T and TdP” value ([4]; after removal of mexiletine EAD, R-on-T reoccurred) was “washable”. For the same compound, the “effect on EAD, R-on-T and TdP induced by 10 nM dofetilide” value ([4]; mexiletine 10 μM, low (3 mM) K+ (FIG. 6)) was “effectively abolished”.
For CN(CCOc1ccc(NS(C)(=O)=O)cc1)CCc1ccc(NS(C)(=O)=O)cc1 [dofetilide, N-[4-(2-{[2-(4-methanesulfonamidophenoxy)ethyl](methyl)amino}ethyl)phenyl] methanesulfonamide], the “Induced Atrial Fibrillation (incidence)” value ([1]; dofetilide 3 nM) was 3 of 6 preparations, the “effect on atrial fibrillation readily induced by single stimuli” value ([1]; one atrial wedge preparation, dofetilide alone 10 nM and 30 nM (FIG. 5)) was “failed to suppress induction of atrial fibrillation and premature beats; also recorded: reduced only duration and incidences of atrial fibrillation” and the “suppression of induction of atrial fibrillation” value [1] was “partially suppressed”. The “therapeutical plasma concentration in humans” value [2] was about 0.003 µM, the “atrial preparations that lost excitation, drug alone” value [3] was “none” and the “effect on atrial ERP, drug alone” value [3] was “mildly to moderately prolonged”. For the same compound, the “EAD (incidence)” value [4, 6] was 7 of 7, the “R-on-T (incidence)” value [4, 6] was 5 of 7 and the “TdP (incidence)” value [4, 6] was 1 of 7. The “effect on atrial APD90” value [5] was “significantly increased”.
